Assays:
[1] = target: O-acetylserine sulfhydrylase (Mycobacterium tuberculosis) (UniProt P9WP55)
[2] = target: O-acetylserine sulfhydrylase (Mycobacterium tuberculosis) (UniProt P9WP55); remark: listed apart in the source
[3] = Lipophilicity, log P of the compound; type: physicochemical; conditions: octanol/water
[4] = target: O-acetylserine sulfhydrylase (Mycobacterium tuberculosis) (UniProt P9WP55); conditions: at 500 nM
Description: Inhibition of Mycobacterium tuberculosis N-terminal His-6-tagged recombinant CysK1 expressed in Escherichia coli BL21 (DE3) at 500 nM after 20 mins by spectrophotometric analysis

[5] = target: T1, O-acetylserine sulfhydrylase (Mycobacterium tuberculosis, UniProt P9WP55)
Description: Inhibition of Mycobacterium tuberculosis N-terminal His-6-tagged recombinant CysK1 expressed in Escherichia coli BL21 (DE3) after 20 mins by spectrophotometric analysis

[6] = target: T1, O-acetylserine sulfhydrylase; assay: Inhibition of Mycobacterium tuberculosis CysK1

CN1C(=O)/C(=C/c2ccc(F)cc2)S/C1=N\c1cccc(C(=O)O)c1
Ratio IC50 [1]: 5 | Ratio IC50 [2]: 150 | logP [3]: 2.7 | inhibition [4]: 89.5% | IC50 [5]: 19 nM

CC[C@H](C)[C@H](NC(=O)[C@H](CO)NC(=O)[C@H](Cc1ccccc1)NC(=O)[C@@H](N)CC(=O)O)C(=O)O
IC50 [6]: 2900 nM

CCCN1C(=O)/C(=C/c2ccc(O)cc2)S/C1=N\c1cccc(C(=O)O)c1
inhibition [4]: 95.1% | IC50 [5]: 95.1 nM

CCN1C(=O)/C(=C/c2ccc(O)cc2)S/C1=N\c1cccc(C(=O)O)c1
inhibition [4]: 90.2% | IC50 [5]: 101 nM

CN1C(=O)/C(=C/c2ccccc2OCC(=O)O)S/C1=N\c1cccc(C(=O)O)c1
IC50 [6]: 103 nM

COc1cc(/C=C2\S/C(=N\c3cccc(C(=O)O)c3)N(C)C2=O)ccc1O
inhibition [4]: 87.5% | IC50 [5]: 60 nM

CN1C(=O)/C(=C/c2ccc(N(C)C)cc2)S/C1=N\c1cccc(C(=O)O)c1
inhibition [4]: 93.4% | IC50 [5]: 37 nM

COc1ccc(/C=C2\S/C(=N\c3cccc(C(=O)O)c3)N(C)C2=O)cc1
inhibition [4]: 88.6% | IC50 [5]: 33.9 nM
